Measurements as given in patent US7691985B2, “Skeletal-targeted radiation to treat bone-associated pathologies” (priority 1999, dated 2010).

How the values were obtained:
[1] = Stability of ^166Ho-DOTMP with and without stabilizer: radiochemical purity by ITLC, CEC, HPLC (Example 15); type: physicochemical; details: ascorbic acid about 35-75 mg/mL, ambient conditions, unfrozen
Protocol: Samples of ^166Ho-DOTMP were prepared according to the procedure in Example 1 using ascorbic acid, 55 mg/mL, as the stabilizer. Identical samples were prepared without ascorbic acid. The solutions were analyzed for radiochemical purity after 1 hour, 6 hours, 10 hours, 24 hours, and 48 hours, using Instant Thin Layer Chromatography (ILTC), Cation Exchange Chromatography (CEC) and High Performance Liquid Chromatography (HPLC).

[2] = Phase II multicenter dosimetry study of ^166Ho-DOTMP: safety, biodistribution, pharmacokinetics (Example 9); type: in vivo, human
Protocol: A 12-patient, Phase II multicenter study was performed to further evaluate the safety, biodistribution and pharmacokinetics of ^166Ho-DOTMP. Each patient was to receive two 30 mCi tracer doses of ^166Ho-DOTMP followed, in eligible patients (those with adequate skeletal uptake parameters), by a therapy dose calculated to deliver 25 Gy to the red marrow. All patients in this study received CBI.

[3] = test system: multiple myeloma; assay: Single patient: 40 Gy ^166Ho-DOTMP, melphalan 140 mg/m^2 (Example 12); type: in vivo, human
Protocol: The patient, a person with an original diagnosis of multiple myeloma, was administered a therapeutic dose of ^166Ho-DOTMP of 3875 mCi which was calculated to deliver 40 Gy to the marrow. Post ^166Ho-DOTMP, the patient received a dose of 140 mg/m^2 of melphalan (I.V.). The patients stem cells were reinfused three days after the melphalan and were followed by G-CSF for ten days.

[4] = 3875 mCi (40 Gy to marrow), melphalan 140 mg/m^2, one patient

Question: What does the source list for `O=P([O-])(O)CN1CCN(CP(=O)(O)O)CCN(CP(=O)([O-])O)CCN(CP(=O)(O)O)CC1.[166Ho]` [^166Ho-DOTMP]?
Answer: time the solution is stable, e.g., therapeutically useful [1]: ≥ 72 h; route of excretion ([2]; gamma camera counting and urine PK): no route of excretion other than the urine; localization of retained activity ([2]; gamma camera images): retained activity was localized in the skeleton; hypocalcemia or associated cardiac abnormalities ([2]; serum calcium, ECG and Holter monitoring): no clinical observations of hypocalcemia or associated cardiac abnormalities were noted; acute toxicities ([2]; therapy dose 25 Gy to red marrow): no unexpected acute toxicities were noted; time to engraftment after stem cell transplant ([2]; therapy dose calculated to deliver 25 Gy to red marrow, all patients): ≤ 15 days; days post stem cell transplant to neutrophil engraftment (ANC >500) [3, 4]: Nine; days post transplant to platelet engraftment (>20,000) [3, 4]: fourteen; response ([3]; twenty-eight days post transplant, one patient): complete remission
